Reference: paper PMC4805166, “Synthetic Cyclolipopeptides Selective against Microbial, Plant and Animal Cell Targets by Incorporation of D-Amino Acids or Histidine” (PLoS ONE, 2016)
Where “and” joins values, the source holds several entries; their conditions need not be identical. Identical values can stand only once. Like-named read-outs stand apart in the source and are kept apart here. Where a SMILES comes first, the peptide text is derived from it. Side-chain parts run from the residue outwards. [ ]: non-standard residue; d: D form. The star is where a group is joined. Hexanoyl = CCCCCC(=O)*; Butyryl = CCCC(=O)*

Tests used:
[1] = test system: E. amylovora, P. syringae pv. syringae, X. axonopodis pv. vesicatoria and F. oxysporum; format: cell-based; details: three of the four pathogens tested
Description: The following plant pathogenic bacterial strains were used: Erwinia amylovora PMV6076 (Institut National de la Recherche Agronomique, Angers, France), Pseudomonas syringae pv. syringae EPS94 (Institut de Tecnologia Agroalimentària, Universitat de Girona, Spain) and Xanthomonas axonopodis pv. vesicatoria 2133–2 (Instituto Valenciano de Investigaciones Agrarias, Valencia, Spain). All bacteria were stored in Luria Bertani (LB) broth supplemented with glycerol (20%) and maintained at -80°C. Bacteria were scrapped from LB agar after growing for 24–48 h at 25°C. The cell material was suspended in sterile water to obtain a suspension of 10^8 CFU mL^-1.
Fusarium oxysporum f. sp. lycopersici FOL 3 race 2 (ATCC 201829, American Type Culture Collection) was used as fungal pathogen. The strain was cultured on potato dextrose agar (PDA) plates (Difco) and microconidia were obtained after growth at 25°C. The concentration of conidia was determined using a hemacytometer and adjusted to 10^4 conidia mL^-1.
Lyophilized peptides were solubilized in sterile Milli-Q water to a final concentration of 1 mM and filter sterilized through a 0.22-μm pore filter. For minimum inhibitory concentration (MIC) assessment, dilutions of the compounds were made to obtain a stock concentration of […]. For antibacterial activity twenty microlitres of each dilution were mixed in a microtiter plate well with 20 μL of the corresponding suspension of the bacterial indicator, 160 μL of Trypticase Soy Broth (TSB) (BioMèrieux, France) to a total volume of 200 μL. For antifungal activity 20 μL of each stock solution were mixed in a microtiter plate well with 80 μL of the corresponding suspension of the fungal pathogen and 100 μL of double concentrated PDB to a total volume of 200 μL containing 0.003% w/v of choramphenicol.
Three replicates for each strain, compound and concentration were used. Microbial growth was determined by optical density measurement at 600 nm (Bioscreen C, Labsystem, Helsinki, Finland). For antibacterial activity microplates were incubated at 25°C with 20 sec shaking before hourly absorbance measurement for 48 h. For antifungal activity microplates were incubated at 20°C with 1 min shaking before absorbance measurement that were done every two hours during seven days. The experiment was repeated twice. The MIC was taken as the lowest compound concentration with no growth at the end of the experiment.

[2] = test system: Fusarium oxysporum f. sp. lycopersici FOL 3 race 2; experiment: MIC, antifungal growth inhibition; format: cell-based
In short: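 Microconidia are grown on PDA at 25 °C and adjusted to 10^4 conidia/mL. Peptide stocks of 500, 250, 125, 62.5 and 31.1 µM (stock, not final) are mixed with conidia in double-concentrated PDB with 0.003% chloramphenicol, in triplicate, and incubated at 20 °C. OD600 is read every 2 h for seven days, and MIC is the lowest concentration with no growth at the end.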

[3] = test system: Pseudomonas syringae pv. syringae EPS94; format: cell-based; details: 48 h
In short: (§1)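 Peptide dilutions (stocks 500–31.1 μM) mixed 1:10 with 10^8 CFU/mL bacterial suspension in TSB. Incubated 25 °C, OD600 read hourly for 48 h, triplicates, repeated twice. MIC: lowest concentration with no growth at end.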

[4] = test system: Xanthomonas axonopodis pv. vesicatoria 2133–2; format: cell-based; details: TSB, 25°C, 48 h, OD 600 nm; tested at 3.1, 6.2, 12.5, 25, 50 μM; three replicates, experiment repeated twice; MIC = lowest concentration with no growth
In short: as §1

[5] = test system: erythrocyte suspensions of horse blood; details: horse erythrocytes 5% vol/vol, TRIS buffer pH 7.2, 1 h at 37°C, absorbance 540 nm, relative to melittin 100 μM, ± confidence interval (α = 0.05); for Hemolysis (%) 150 µM: 150 µM peptide; for Hemolysis (%) 250 µM: 250 µM peptide;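 for all read-outs here: Read-out is hemoglobin release into the supernatant, with a buffer-only blank subtracted as the 0% baseline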
Description: Blood was centrifuged at 6000g for 5 min, washed three times with TRIS buffer (10 mM TRIS, 150 mM NaCl, pH 7.2) and diluted.
Compounds were solubilized in TRIS buffer and mixed with horse erythrocytes and the final concentrations tested were 250 and 150 μM. The mixture was incubated under continuous shaking for 1 h at 37°C. Then, the tubes were centrifuged at 3500g for 10 min, 80 μL aliquots of the supernatant transferred to 100-well microplates (Bioscreen), diluted with 80 μL water, and the absorbance measured at 540 nm (Bioscreen). Complete hemolysis was obtained by the addition of melittin at 100 μM (Sigma-Aldrich Corporation, Madrid, Spain). The percentage of hemolysis (H) was calculated using the equation: H = 100×[(Op−Ob)/(Om−Ob)], where Op was the density for a given compound concentration, Ob for the buffer, and Om for the melittin positive control.

[6] = test system: Erwinia amylovora PMV6076; experiment: MIC, in vitro growth inhibition; format: cell-based; details: TSB, 25°C, 48 h, OD 600 nm; tested at 3.1, 6.2, 12.5, 25, 50 μM; three replicates, experiment repeated twice; MIC = lowest concentration with no growth
In short: as §1

[7] = test system: X. axonopodis pv. vesicatoria; experiment: Bactericidal activity (killing assay); format: cell-based, Xanthomonas axonopodis pv. vesicatoria; details: 5 μM peptide, LB broth, aliquots every 30 min during 3 h, viable counts; triplicates
Description: In a total volume of 5 mL, 4 mL of Luria-Bertani (LB) broth were mixed with 0.5 ml of a suspension of X. axonopodis pv. vesicatoria adjusted to 10^8 CFU mL^-1 and 0.5 mL of the peptide solution at 50 μM (final concentration at 5 μM). Aliquots of 500 μL were removed at 30-min intervals during 3 h and the appropriate dilutions were spread onto LB agar using a spiral plater (Eddy Jet; IUL instruments, Spain). Triplicates were performed and colonies were counted after 48 h of incubation at 25°C with an automatic counter (Flash and Go; IUL instruments, Spain) by incorporating the software CounterMat version 5.0.

[8] = test system: tobacco leaves; experiment: Phytotoxicity by infiltration of tobacco leaves; format: in vivo; details: 250 μM, 100 μL infiltrated into mesophyll of tobacco leaves, 48 h after infiltration; at least three inoculations
Description: Peptide solutions of 50, 100, 150 and 250 μM were infiltrated (100 μL) into the mesophylls of fully expanded tobacco leaves. Six independent inoculations were carried out in a single leaf, and at least three independent inoculations were performed per peptide and concentration randomly distributed in diferent leaves and plants. Control infiltrations with water (negative control) or mellitin (positive control) at the same molar concentration were performed. The appearance of symptoms on the leaves was followed for 48 h after infiltration and measured as a lesion diameter.

[9] = PDB with 0.003% chloramphenicol, 20°C, seven days, OD 600 nm, tested at 3.1, 6.2, 12.5, 25, 50 μM, three replicates, repeated twice

Compound	MIC against three pathogens [1] [µM]	MIC Fo [2, 9] [µM]	MIC Pss [3] [µM]	MIC Xav [4]	Hemolysis (%) 150 µM [5] [%]	Hemolysis (%) 250 µM [5] [%]	MIC Ea [6] [µM]	Bactericidal activity (kinetics of survival) [7]	Phytotoxicity, size of the lesions (necrosis diameter) [8]	MIC Fo [2] [µM]
CCCC(=O)NCCCC[C@@H]1NC(=O)[C@H](CCCCN)NC(=O)[C@H](CC(C)C)NC(=O)[C@H](CCCCN)NC(=O)[C@H](CCCCN)NC(=O)[C@H](CCC(N)=O)NC(=O)[C@H](CC(C)C)NC(=O)[C@H](CCCCN)NC(=O)[C@H](CCCCN)NC(=O)[C@H](Cc2ccccc2)NC1=O [BPC500, c(KKLKK(CO-C3H7)FKKLQ)] (cyclo(FKKLQKKLKK(Butyryl)))	< 12.5	<3.1	6.2 to 12.5	<3.1 µM	28 ± 5	38 ± 4	12.5 to 25	bactericidal activity	–	–
CCCCCC(=O)NCCCC[C@@H]1NC(=O)[C@H](CCC(N)=O)NC(=O)[C@H](CC(C)C)NC(=O)[C@H](CCCCN)NC(=O)[C@H](CCCCN)NC(=O)[C@H](Cc2c[nH]cn2)NC(=O)[C@H](CCCCN)NC(=O)[C@H](CCCCN)NC(=O)[C@H](CC(C)C)NC(=O)[C@H](CCCCN)NC1=O [BPC688] (cyclo(HKKLQK(Hexanoyl)KLKK))	–	12.5 to 25	25 to 50	25 to 50 µM	1 ± 2	1 ± 0.2	>50	–	0–0.38 cm	–
CCCC(=O)NCCCC[C@H]1NC(=O)[C@H](CCC(N)=O)NC(=O)[C@H](CC(C)C)NC(=O)[C@H](CCCCN)NC(=O)[C@H](CCCCN)NC(=O)[C@H](Cc2ccccc2)NC(=O)[C@H](CCCCN)NC(=O)[C@H](CCCCN)NC(=O)[C@H](CC(C)C)NC(=O)[C@H](CCCCN)NC1=O [BPC706] (cyclo(FKKLQ[dK](Butyryl)KLKK))	–	3.1 to 6.2	6.2 to 12.5	3.1 to 12.5 µM and 6.2 to 12.5 µM	35 ± 3	46 ± 3	25 to 50	–	0–0.38 cm	3.1 to 6.2
CCCC(=O)N[C@@H](CCCCN)C(=O)N[C@@H](CC(C)C)C(=O)NCCCC[C@@H]1NC(=O)[C@H](CCCCN)NC(=O)[C@H](CC(C)C)NC(=O)[C@H](CCCCN)NC(=O)[C@H](CCCCN)NC(=O)[C@H](CCC(N)=O)NC(=O)[C@H](CC(C)C)NC(=O)[C@H](CCCCN)NC(=O)[C@H](CCCCN)NC(=O)[C@H](Cc2c[nH]cn2)NC1=O [BPC728, c(KKLKK(LK-CO-C3H7)HKKLQ)] (cyclo(HKKLQKKLKK([Leu-Lys-Butyryl])))	–	<3.1	12.5 to 25	6.2 to 12.5 µM	0	–	>50	bactericidal activity	–	–
melittin [mellitin, reference compound]	–	–	–	–	–	–	–	–	around 2 cm	–
